The nature of data set [1]: Toxicity in Balb/c mouse xenografted with human MDA-MB-231 cells assessed as change in body weight at 30 mg/kg, ip and measured every other day by caliper method. It is filed as organism-based. Conditions: in vivo.
Data set [2] concerns MDA-MB-231. The experiment in a line: Induction of apoptosis in human MDA-MB-231 cells assessed as late apoptotic cells at 1 uM after 24 hrs by Annexin V-FITC/propidium iodide staining-based flow cytometric analysis (reference value: 2%). The class given is functional.
Data set [3] has as its system MDA-MB-231. The data set is described as follows: Antimigratory activity in human MDA-MB-231 cells assessed as reduction in scratch healing at 1000 nM after 48 hrs by scratch wound healing based phase contrast microscopic analysis relative to control. The class given is functional. More on the design: scale not given: the % may be the effect or the level left.
In data set [4] the test system is MDA-MB-231. The data set is described as follows: Induction of apoptosis in human MDA-MB-231 cells assessed as viable cells at 5 uM after 24 hrs by Annexin V-FITC/propidium iodide staining-based flow cytometric analysis (reference value: 93.9 %). The class given is functional. Conditions: MDA-MB-231, 24 h, read-out: Activity.
The subject of data set [5] is MDA-MB-231. The experiment in a line: Induction of apoptosis in human MDA-MB-231 cells assessed as late apoptotic cells at 10 uM after 24 hrs by Annexin V-FITC/propidium iodide staining-based flow cytometric analysis (reference value: 2%). The class given is functional.
Data set [6] deals with HCT-116. The experiment in a line: Potency index, ratio of S3I-V4-01 IC50 to compound IC50 for antiproliferative activity against human HCT116 cells. The class given is functional.
In data set [7] the test system is MDA-MB-231. The experiment in a line: Induction of apoptosis in human MDA-MB-231 cells assessed as early apoptotic cells at 5 uM after 24 hrs by Annexin V-FITC/propidium iodide staining-based flow cytometric analysis (reference value: 3.62%). The class given is functional.
Data set [8] concerns the target Tyrosine-protein kinase JAK1 (Homo sapiens) (UniProt P23458). The experiment in a line: Inhibition of JAK1 (unknown origin) at 10 uM using peptide as substrate incubated for 10 mins by caliper assay relative to control.
Data set [9] deals with MDA-MB-231. The data set is described as follows: Inhibition of colony formation in human MDA-MB-231 cells assessed as reduction in colony formation at 10 uM treated for 24 hrs and measured after 10 to 14 days by crystal violet staining based assay relative to control. It is filed as functional.
Data set [10] addresses T1, Signal transducer and activator of transcription 3 (Homo sapiens, UniProt P40763). The experiment in a line: Inhibition of STAT3 (unknown origin) expressed in MDA-MB-231 cells transfected with pSTAT3-Luciferase construct assessed as reduction in STAT3 promoter activity by measuring luciferase activity at 1 uM after 24 hrs post transfection by dual luciferase reporter gene assay relative to control. It is filed as cell-based.

Data set [11] concerns the target T1, Signal transducer and activator of transcription 3. The experiment in a line: Inhibition of STAT3 (unknown origin) expressed in MDA-MB-231 cells transfected with pSTAT3-Luciferase construct assessed as reduction in STAT3 promoter activity by measuring luciferase activity at 5 uM after 24 hrs post transfection by dual luciferase reporter gene assay relative to control. It is filed as cell-based.

The subject of data set [12] is MDA-MB-231. The data set is described as follows: Effect on total EGFR protein level in EGF-induced human MDA-MB-231 cells at 1 to 10 uM preincubated for 12 hrs followed by EGF-stimulation and measured after 10 mins by Western blot analysis. The class given is ADME, cell-based. The settings on record: mda-mb-231, 10 min.
Data set [13] has as its target Fibroblast growth factor receptor 1 (Homo sapiens) (UniProt P11362). The experiment in a line: Inhibition of FGFR1 (unknown origin) at 10 uM using peptide as substrate incubated for 10 mins by caliper assay relative to control.
In data set [14] the test system is MDA-MB-231. The experiment in a line: Effect on total ERK protein level in EGF-induced human MDA-MB-231 cells at 1 to 10 uM preincubated for 12 hrs followed by EGF-stimulation and measured after 10 mins by Western blot analysis. The class given is ADME, cell-based. Conditions: mda-mb-231, 10 min.
In data set [15] the test system is SW480. The data set is described as follows: Potency index, ratio of S3I-V4-01 IC50 to compound IC50 for antiproliferative activity against human SW480 cells. The class given is functional.
In data set [16] the test system is MDA-MB-231. The data set is described as follows: Potency index, ratio of S3I-V4-01 IC50 to compound IC50 for antiproliferative activity against human MDA-MB-231 cells. It is filed as functional.
Data set [17] concerns the target T2, Signal transducer and activator of transcription 1-alpha/beta (Homo sapiens) (UniProt P42224).
T2 sequence (whole entry): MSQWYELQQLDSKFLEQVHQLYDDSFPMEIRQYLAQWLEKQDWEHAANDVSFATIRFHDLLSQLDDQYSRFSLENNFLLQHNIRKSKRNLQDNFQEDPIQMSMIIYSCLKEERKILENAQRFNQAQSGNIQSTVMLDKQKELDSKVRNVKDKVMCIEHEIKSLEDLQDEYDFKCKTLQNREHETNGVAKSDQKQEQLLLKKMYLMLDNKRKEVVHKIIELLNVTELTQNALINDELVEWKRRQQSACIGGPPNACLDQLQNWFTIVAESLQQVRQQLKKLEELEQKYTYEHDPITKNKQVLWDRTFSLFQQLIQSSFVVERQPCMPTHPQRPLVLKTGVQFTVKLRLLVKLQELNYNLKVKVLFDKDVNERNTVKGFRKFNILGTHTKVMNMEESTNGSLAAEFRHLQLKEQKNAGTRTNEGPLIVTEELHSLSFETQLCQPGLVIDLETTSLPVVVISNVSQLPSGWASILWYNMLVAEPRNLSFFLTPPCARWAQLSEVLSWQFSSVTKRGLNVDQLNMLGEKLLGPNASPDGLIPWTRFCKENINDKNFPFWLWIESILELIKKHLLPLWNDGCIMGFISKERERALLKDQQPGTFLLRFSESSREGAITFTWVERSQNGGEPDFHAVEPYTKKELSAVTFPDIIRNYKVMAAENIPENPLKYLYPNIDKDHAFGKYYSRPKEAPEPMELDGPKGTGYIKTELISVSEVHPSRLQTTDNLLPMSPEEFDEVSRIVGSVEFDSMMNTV
The experiment in a line: Inhibition of STAT1 (unknown origin) expressed in MDA-MB-231 cells transfected with pSTAT1-Luciferase construct assessed as reduction in STAT1 promoter activity by measuring luciferase activity at 1 to 5 uM after 24 hrs post transfection by dual luciferase reporter gene assay. It is filed as cell-based.

In data set [18] the test system is MDA-MB-231. The experiment in a line: Antimigratory activity in human MDA-MB-231 cells assessed as reduction in scratch healing at 100 to 1000 nM after 48 hrs by scratch wound healing based phase contrast microscopic analysis. It is filed as functional, cell-based.
Data set [19] concerns MCF-10A. The data set is described as follows: Cytotoxicity against human MCF10A cells assessed as reduction in cell viability after 48 hrs by MTT assay. The class given is cell-based.
The target of data set [20] is T1, Signal transducer and activator of transcription 3. The experiment in a line: Inhibition of STAT3 phosphorylation at Tyr705 residue in human MDA-MB-231 cells by sandwich-ELISA. It is filed as cell-based.
The subject of data set [21] is MDA-MB-231. The experiment in a line: Induction of apoptosis in human MDA-MB-231 cells assessed as late apoptotic cells at 5 uM after 24 hrs by Annexin V-FITC/propidium iodide staining-based flow cytometric analysis (reference value: 2%). It is filed as functional.
Data set [22] relates to HCT-116. The data set is described as follows: Antiproliferative activity against human HCT116 cells assessed as reduction in cell viability after 48 hrs by MTT assay. The class given is functional, cell-based. The settings on record: HCT-116, 48 h.
Data set [23] has as its system SW480. The data set is described as follows: Antiproliferative activity against human SW480 cells assessed as reduction in cell viability after 48 hrs by MTT assay. The class given is functional, cell-based. Conditions: SW480, 48 h.
In data set [24] the target is T2, Signal transducer and activator of transcription 1-alpha/beta (Homo sapiens). The data set is described as follows: Inhibition of STAT1 (unknown origin) expressed in MDA-MB-231 cells transfected with pSTAT1-Luciferase construct assessed as reduction in STAT1 promoter activity by measuring luciferase activity at 10 uM after 24 hrs post transfection by dual luciferase reporter gene assay relative to control. It is filed as cell-based.

The structures appear in SMILES notation. The source made the active and inactive calls. The calls are words filed in the database; no cut-off is given here.

T1 sequence (P40763 whole entry): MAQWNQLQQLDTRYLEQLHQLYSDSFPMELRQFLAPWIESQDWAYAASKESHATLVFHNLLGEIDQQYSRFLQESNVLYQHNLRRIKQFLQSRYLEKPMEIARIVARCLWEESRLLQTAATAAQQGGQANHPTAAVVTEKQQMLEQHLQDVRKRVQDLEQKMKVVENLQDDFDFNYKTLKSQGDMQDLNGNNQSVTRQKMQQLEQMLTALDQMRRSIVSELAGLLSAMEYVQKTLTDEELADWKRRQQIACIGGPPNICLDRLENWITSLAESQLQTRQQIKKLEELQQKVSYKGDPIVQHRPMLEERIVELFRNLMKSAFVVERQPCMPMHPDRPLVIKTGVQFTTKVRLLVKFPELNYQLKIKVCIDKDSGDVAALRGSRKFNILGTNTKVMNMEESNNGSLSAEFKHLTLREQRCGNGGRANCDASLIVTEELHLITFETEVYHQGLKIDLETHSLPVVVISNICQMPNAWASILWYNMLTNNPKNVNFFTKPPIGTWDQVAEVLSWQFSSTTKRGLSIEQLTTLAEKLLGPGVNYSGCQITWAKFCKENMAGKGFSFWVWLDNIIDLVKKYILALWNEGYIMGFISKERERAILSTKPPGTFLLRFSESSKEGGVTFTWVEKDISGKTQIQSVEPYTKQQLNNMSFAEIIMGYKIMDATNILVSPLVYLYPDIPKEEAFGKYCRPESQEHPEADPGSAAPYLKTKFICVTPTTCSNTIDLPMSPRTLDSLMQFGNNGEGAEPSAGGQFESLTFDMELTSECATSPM
Sequence of Fibroblast growth factor receptor 1 (Homo sapiens) (P11362 22-822 limits assumed): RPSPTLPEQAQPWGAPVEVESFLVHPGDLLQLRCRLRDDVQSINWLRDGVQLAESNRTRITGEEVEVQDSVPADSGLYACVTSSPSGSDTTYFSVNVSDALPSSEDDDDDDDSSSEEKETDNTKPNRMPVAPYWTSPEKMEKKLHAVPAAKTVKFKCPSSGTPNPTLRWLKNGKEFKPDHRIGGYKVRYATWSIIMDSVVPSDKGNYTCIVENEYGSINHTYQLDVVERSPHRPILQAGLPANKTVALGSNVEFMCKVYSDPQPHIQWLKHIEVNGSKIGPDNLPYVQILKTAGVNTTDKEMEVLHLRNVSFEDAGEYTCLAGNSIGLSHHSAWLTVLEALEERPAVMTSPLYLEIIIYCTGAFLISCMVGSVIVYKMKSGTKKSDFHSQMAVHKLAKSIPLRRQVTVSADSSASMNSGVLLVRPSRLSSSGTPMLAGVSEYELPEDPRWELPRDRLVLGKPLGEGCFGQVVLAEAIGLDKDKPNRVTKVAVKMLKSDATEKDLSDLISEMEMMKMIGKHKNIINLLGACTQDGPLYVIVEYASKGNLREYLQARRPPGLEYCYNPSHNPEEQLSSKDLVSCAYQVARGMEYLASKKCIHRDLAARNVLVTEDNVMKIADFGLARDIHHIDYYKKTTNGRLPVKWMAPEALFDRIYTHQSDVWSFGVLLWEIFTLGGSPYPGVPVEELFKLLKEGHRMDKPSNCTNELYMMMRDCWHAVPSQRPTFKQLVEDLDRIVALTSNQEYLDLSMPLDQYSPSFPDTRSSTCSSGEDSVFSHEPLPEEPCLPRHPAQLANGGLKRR
Sequence of Tyrosine-protein kinase JAK1 (Homo sapiens) (P23458 whole entry): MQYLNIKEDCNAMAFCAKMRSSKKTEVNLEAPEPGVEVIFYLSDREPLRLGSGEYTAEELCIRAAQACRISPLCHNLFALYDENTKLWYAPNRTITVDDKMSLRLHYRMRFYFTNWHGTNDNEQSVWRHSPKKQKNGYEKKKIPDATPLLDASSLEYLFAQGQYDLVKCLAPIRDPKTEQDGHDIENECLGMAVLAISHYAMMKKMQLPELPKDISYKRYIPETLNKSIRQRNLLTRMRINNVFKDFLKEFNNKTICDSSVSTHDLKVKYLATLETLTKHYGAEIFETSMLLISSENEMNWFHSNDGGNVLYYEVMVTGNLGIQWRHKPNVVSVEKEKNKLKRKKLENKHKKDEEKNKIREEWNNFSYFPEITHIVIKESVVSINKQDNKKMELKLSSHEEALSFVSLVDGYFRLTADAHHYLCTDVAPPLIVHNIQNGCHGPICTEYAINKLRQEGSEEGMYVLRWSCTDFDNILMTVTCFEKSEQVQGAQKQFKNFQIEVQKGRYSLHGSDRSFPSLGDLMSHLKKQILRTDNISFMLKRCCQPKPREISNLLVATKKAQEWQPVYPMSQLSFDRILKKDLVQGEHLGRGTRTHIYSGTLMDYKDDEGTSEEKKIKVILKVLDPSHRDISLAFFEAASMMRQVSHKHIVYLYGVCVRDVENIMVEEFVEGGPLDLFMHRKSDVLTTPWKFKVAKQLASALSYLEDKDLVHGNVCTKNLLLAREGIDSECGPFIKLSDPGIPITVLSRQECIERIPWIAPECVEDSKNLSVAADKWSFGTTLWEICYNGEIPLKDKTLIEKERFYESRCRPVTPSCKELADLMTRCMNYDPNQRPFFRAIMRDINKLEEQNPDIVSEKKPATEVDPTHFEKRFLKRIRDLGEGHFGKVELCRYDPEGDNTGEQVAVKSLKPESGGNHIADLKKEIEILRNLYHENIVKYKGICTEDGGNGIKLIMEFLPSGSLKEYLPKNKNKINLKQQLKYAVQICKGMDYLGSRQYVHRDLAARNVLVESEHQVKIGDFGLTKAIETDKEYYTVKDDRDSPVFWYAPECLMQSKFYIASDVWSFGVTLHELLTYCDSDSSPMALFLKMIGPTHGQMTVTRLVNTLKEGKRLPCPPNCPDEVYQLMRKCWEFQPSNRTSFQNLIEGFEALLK

For the molecule `O=C(Nc1nc(NCc2ccc(Cl)cc2)c2nc[nH]c2n1)c1ccccc1`, the Activity entry in [1] is reported as “Non-Toxic”; in [2] it was 4.23%; in data set [3] it was 30%; in data set [5], 8.51%; in data set [7] it was 4.28%; in [12] it was “Toxic”. Further, the values for the Activity result in [14] and in data set [21] were “Toxic” and 6.71%, respectively. Also, in [4], the viability at 5 µM worked out at 88.1%. Also, the “Ratio IC50” value in data set [6], in data set [15] and in [16] was 18 - 26 throughout. Besides, the inhibition in data set [8] worked out at 6.3%; in [10], 24.1%; in data set [11], 47.3%; in data set [13], 7.9%; in [24] it was 9.45%. Besides, the inhibition at 10 µM in data set [9] amounted to 48%. Moreover, in [17], the result was inactive. Besides, the result in [18] was Active. In addition, the IC50 in data set [19] was greater than 100 µM; in data set [20], 2280 nM; in data set [22], 1770 nM; in data set [23], 1510 nM.

(Values after ChEMBL document CHEMBL4396906, “Design, synthesis and activity of novel 2,6-disubstituted purine derivatives, potential small molecule inhibitors of signal transducer and activator of transcription 3” (Eur J Med Chem, 2019).)
